Target: T1, VEGF Receptor 2 Kinase (VEGFR2) (Homo sapiens, UniProt P35968)
T1 construct: made in house; host or cells: SF-21 insect cells, recombinant baculovirus BAC-VEGFR2 (pFASTBAC1)
Experiment: Determination of VEGF receptor 2 kinase (VEGFR2) inhibitory activity (alpha screen)
Assay type: biochemical
Settings: VEGFR2 intracellular domain protein, 25 μM ATP buffer, read-out: inhibitory rate (kinase inhibitory rate of VEGFR2)
Description: For cloning of human VEGF receptor 2 (hereinafter to be abbreviated as VEGFR2) gene, PCR was performed using cDNA Libraries Human Placenta (Clontech) as a template. The primer used for PCR was prepared by, based on the information of the base sequence (Genbank Accession AF035121) of VEGFR2 gene, adding a base sequence encoding the flag peptide and a restriction enzyme recognition sequence to the base sequence (2671-4374 of Genbank Accession AF035121) encoding the VEGFR2 intracellular domain, so that a flag tag would be added to the N terminal of the protein. The primer base sequence is shown in the following.
PCR reaction was carried out using a KOD-plus kit (TOYOBO). The obtained PCR product was electrophoresed on an agarose gel (1%), and a DNA fragment amplified by PCR was recovered from the gel and digested with restriction enzymes Sal I and Sph I. The DNA after the restriction enzyme treatment was electrophoresed on an agarose gel (1%), and the obtained DNA fragment was recovered and ligated to the plasmid pFASTBAC1 (Invitrogen) digested with restriction enzymes Sal I and Sph I to give an expression plasmid pFB-VEGFR2. The base sequence of the inserted fragment was confirmed to have matched with the base sequence (2671-4374 of Genbank Accession AF035121) of the VEGFR2 intracellular domain. Furthermore, virus stock BAC-VEGFR2 of the recombinant Baculovirus was prepared using BAC-TO-BAC Baculovirus Expression System (Invitrogen).
SF-21 cells were inoculated into 1 L of Sf-900IISFM medium (Invitrogen) containing 10% fetal calf serum (trace), 50 mg/L Gentamicin (Invitrogen) and 0.1% Pluronic F-68 (Invitrogen) at 1×10^6 cells/ml, and shake culture was performed using a 2 L Erlenmeyer flask at 27° C., 100 rpm. After 24 hr of culture, recombinant Baculovirus BAC-VEGFR2 (13.4 mL) was added, and the culture was continued for 3 days. The culture medium was centrifuged at 2,000 rpm for 5 min to give virus-infected cells. The infected cells were washed with phosphate buffered saline (Invitrogen), centrifuged under the same conditions, and preserved at −80° C. The cryopreserved cells were thawed in ice, suspended in 30 mL of buffer A (Tris buffer, pH 7.4, containing 20% glycerol and 0.15M NaCl (50 mM)) supplemented with Complete Protease Inhibitor (Boehringer), and disrupted three times using a polytron homogenizer (Kinematica) at 20,000 rpm, 30 sec. The disrupt was clarified by centrifugation at 40,000 rpm, 30 min and filtered through a 0.45 μm filter. The filtrate was passed through a column packed with Anti-FLAG M2 Affinity Gel (Sigma Ltd., 4 mL) at a flow rate of about 0.5 mL/min. The column was washed with buffer A and eluted with buffer A containing 100 μg/mL FLAG peptide. The eluate was concentrated by Vivaspin 20 (Viva Science) having a fraction molecular weight of 30K. The concentrate was applied to NAP™ 25 column (Amersham Biosciences) equilibrated with buffer A for buffer exchange. The fractions containing the VEGFR2 intracellular domain protein were collected, glycerol was added to the final concentration of 50% and the fractions cryopreserved at ˜80° C.
The test compound dissolved in dimethyl sulfoxide (DMSO) was diluted with a buffer (50 mM Tris-HCl, pH 7.5, 5 mM MgCl2, 5 mM MnCl2, 2 mM dithiothreitol, 0.01% Tween-20). A buffer (10 μl) containing 50 ng/ml VEGFR2 intracellular domain protein and 250 ng/ml biotin-labeled polypeptide biotinyl-poly-Glu:Tyr (4:1) (CIS Bio International) was added to the compound solution (5 μl). A buffer (10 μl) containing 25 μM ATP was added to the obtained mixture, the mixture was allowed to react at 25° C. for 5 min. Then, 25 μl of a stop solution (100 mM EDTA·2 sodium salt, 62.5 mM HEPES buffer (pH 7.4), 250 mM NaCl, 0.1% bovine serum albumin, 10 μg/ml Streptavidin Donor beads: PerkinElmer for alpha screen assay, 10 μg/ml Anti-phosphotyrosine (P-Tyr-100) Acceptor beads: PerkinElmer for alpha screen assay) was added to quench the reaction. […]

T1 sequence (P35968 786-1356 limits assumed): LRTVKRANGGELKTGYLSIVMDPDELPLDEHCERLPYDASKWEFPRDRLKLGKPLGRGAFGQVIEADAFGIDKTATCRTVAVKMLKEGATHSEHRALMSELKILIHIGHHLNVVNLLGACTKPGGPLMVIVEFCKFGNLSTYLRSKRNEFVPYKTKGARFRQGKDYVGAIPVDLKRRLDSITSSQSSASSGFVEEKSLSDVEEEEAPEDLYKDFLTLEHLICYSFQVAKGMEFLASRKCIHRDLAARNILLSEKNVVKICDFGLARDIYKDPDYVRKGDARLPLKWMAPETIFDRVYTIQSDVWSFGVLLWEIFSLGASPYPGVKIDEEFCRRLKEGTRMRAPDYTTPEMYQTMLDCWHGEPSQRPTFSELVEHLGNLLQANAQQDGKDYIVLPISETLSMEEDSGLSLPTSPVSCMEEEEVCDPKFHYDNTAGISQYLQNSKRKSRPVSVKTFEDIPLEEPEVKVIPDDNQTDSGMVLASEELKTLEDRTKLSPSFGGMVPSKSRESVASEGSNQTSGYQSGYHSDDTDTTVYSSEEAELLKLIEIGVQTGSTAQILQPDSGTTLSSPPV

Inhibition at 1 µM, ≥ 90%:
Cn1ccc2ncnc(Oc3ccc(NC(=O)Nc4cccc(C(F)(F)F)c4)c(Cl)c3)c21 [Example 15, N-{2-chloro-4-[(5-methyl-5H-pyrrolo[3,2-d]pyrimidin-4-yl)oxy]phenyl}-N′-[3-(trifluoromethyl)phenyl]urea]
Cn1ccc2ncnc(Oc3ccc(NC(=O)Nc4cccc(OC(F)(F)F)c4)c(Cl)c3)c21 [Example 20, N-{2-chloro-4-[(5-methyl-5H-pyrrolo[3,2-d]pyrimidin-4-yl)oxy]phenyl}-N′-[3-(trifluoromethoxy)phenyl]urea]
Cc1cc(Oc2ncnc3ccn(C)c23)ccc1NC(=O)Nc1cccc(C(F)(F)F)c1 [Example 41, N-{2-methyl-4-[(5-methyl-5H-pyrrolo[3,2-d]pyrimidin-4-yl)oxy]phenyl}-N′-[3-(trifluoromethyl)phenyl]urea]
CCn1ccc2ncnc(Oc3ccc(NC(=O)Nc4cccc(C(F)(F)F)c4)c(Cl)c3)c21 [Example 47, N-{2-chloro-4-[(5-ethyl-5H-pyrrolo[3,2-d]pyrimidin-4-yl)oxy]phenyl}-N′-[3-(trifluoromethyl)phenyl]urea]

Source: US20090137580A1, “Fused Heterocyclic Derivatives and Use Thereof” (Takeda Pharmaceutical Company Limited, priority 2005, published 2009)
